Starred links: 1 amine or outer side, 2 acyl side, 3 side chain; linkers in the order of their positions; H or OH if unused. Positions of bridges follow the written chain, without caps; N, C: chain ends. Non-standard residues stand in square brackets, D forms with d. Residues, ends and D or L forms follow the SMILES beside them. *: point of attachment. hPhe(3-Cl-4-CF3) = N[C@@H](CCc1ccc(C(F)(F)F)c(Cl)c1)C(=O)O; NMePhe(3-CF3) = CN[C@@H](Cc1cccc(C(F)(F)F)c1)C(=O)O; NMePhe(2-CF3) = CN[C@@H](Cc1ccccc1C(F)(F)F)C(=O)O; NMePhe(4-Br) = CN[C@@H](Cc1ccc(Br)cc1)C(=O)O; NMePhe(3-Me) = CN[C@@H](Cc1cccc(C)c1)C(=O)O; NMePhe(4-Me) = CN[C@@H](Cc1ccc(C)cc1)C(=O)O; NMePhe(3-F) = CN[C@@H](Cc1cccc(F)c1)C(=O)O; NMePhe(4-F) = CN[C@@H](Cc1ccc(F)cc1)C(=O)O; NMePhe(2-Me) = CN[C@@H](Cc1ccccc1C)C(=O)O; NMedβ3hAla = C[C@H](CC(=O)[*:2])N(C)[*:1]; NMePhe(2-F) = CN[C@@H](Cc1ccccc1F)C(=O)O; NMeGly(cPent) = CN[C@H](C(=O)O)C1CCCC1; NMeY = CN[C@@H](Cc1ccc(O)cc1)C(=O)O; NMeCha = CN[C@@H](CC1CCCCC1)C(=O)O; NMeD = CN[C@@H](CC(=O)O)C(=O)O; NMeL = CN[C@@H](CC(C)C)C(=O)O; NMeV = CN[C@H](C(=O)O)C(C)C; d(β3hA) = C[C@@H](N)CC(=O)O; NMeA = CN[C@@H](C)C(=O)O; Piperidide = C1CCN(*)CC1; Ac5c = NC1(C(=O)O)CCCC1; Aze = O=C(O)[C@@H]1CCN1; Ac4c = NC1(C(=O)O)CCC1; CF3 = FC(F)(F)*; Sar = CNCC(=O)O
Key:
[1] = tested on: Human pancreatic cancer cell line AsPC-1; assay: Measurement of AsPC-1 cell growth inhibition (AsPC-1 CGI); format: cell-based; settings: 96 h
Outline: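 AsPC-1 cells in 15% FBS RPMI-1640 were exposed to test compound for 96 hours at 37° C, with CellTiter-Glo as endpoint.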

[2] = biological target: T1, Kras and SOS1 (biotin-tagged human Kras loaded with GDP, His-tagged human SOS1) (Homo sapiens, UniProt P01116, G12D); assay: Protein-protein interaction inhibition between Kras and SOS1 (KrasGl2D-SOS PPI) using AlphaScreen; format: binding; settings: AlphaScreen; biotin-tagged human Kras loaded with GDP, His-tagged human SOS1; read-out: KRAS G12D-SOS PPI IC50
T1 construct: made in house; host or cells: E. coli (stated for Kras only)
T1 sequence (P01116 1-188 isoform P01116-2 G12D): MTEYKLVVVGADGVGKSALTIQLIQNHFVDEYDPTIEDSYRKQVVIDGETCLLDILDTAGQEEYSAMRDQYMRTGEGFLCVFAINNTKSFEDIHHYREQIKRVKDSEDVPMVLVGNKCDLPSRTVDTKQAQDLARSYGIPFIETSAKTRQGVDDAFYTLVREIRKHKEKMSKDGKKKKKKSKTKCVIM
Outline: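 Binding between SOS1 and Kras is detected as bead-proximity luminescence: illuminate Ni-conjugated donors (680 nm), collect 520-620 nm emission from streptavidin-conjugated acceptors; Kras carries biotin and GDP loaded after purification, SOS1 carries a His tag.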

Structure (SMILES) | IC50 [1] | IC50 [2]
CC[C@H](C)[C@@H]1NC(=O)[C@H](CC(C)C)N(C)C(=O)C[C@@H](C)NC(=O)[C@H](C2CCCC2)N(C)C(=O)C2(CCCC2)NC(=O)[C@@H]2CCCN2C(=O)[C@H](CCc2ccc(C(F)(F)F)c(Cl)c2)NC(=O)CN(C)C(=O)[C@H](Cc2ccc(C)cc2)N(C)C(=O)[C@@H]2CCN2C(=O)[C@H](C)N(C)C1=O [Compound 1537] (cyclo([Ac5c][NMeGly(cPent)][d(β3hA)][NMeL]I[NMeA][Aze][NMePhe(4-Me)][Sar][hPhe(3-Cl-4-CF3)]P)) | 50 to 100 nM | 3.9 nM
CC[C@H](C)[C@@H]1NC(=O)[C@H](CC(C)C)N(C)C(=O)C[C@@H](C)NC(=O)[C@H](C2CCCC2)N(C)C(=O)C2(CCC2)NC(=O)[C@@H]2CCCN2C(=O)[C@H](CCc2ccc(C(F)(F)F)c(Cl)c2)NC(=O)CN(C)C(=O)[C@H](CC2CCCCC2)N(C)C(=O)CN(C)C(=O)CN(C)C1=O [Compound 1544] (cyclo([Ac4c][NMeGly(cPent)][d(β3hA)][NMeL]I[Sar][Sar][NMeCha][Sar][hPhe(3-Cl-4-CF3)]P)) | 100 to 500 nM | 5.6 nM
CC[C@H](C)[C@@H]1NC(=O)[C@H](CC(C)C)N(C)C(=O)C[C@@H](C)N(C)C(=O)[C@H](C(C)C)N(C)C(=O)C2(CCCC2)NC(=O)[C@@H]2CCCN2C(=O)[C@H](CCc2ccc(C(F)(F)F)c(Cl)c2)NC(=O)CN(C)C(=O)[C@H](Cc2ccc(C)cc2)N(C)C(=O)CN(C)C(=O)CN(C)C1=O [Compound 1549] (cyclo([Ac5c][NMeV][NMedβ3hAla][NMeL]I[Sar][Sar][NMePhe(4-Me)][Sar][hPhe(3-Cl-4-CF3)]P)) | 50 to 100 nM | 3.6 nM
CC[C@H](C)[C@@H]1NC(=O)[C@H](CC(C)C)N(C)C(=O)C[C@@H](C)N(C)C(=O)[C@H](C(C)C)N(C)C(=O)C2(CCCC2)NC(=O)[C@@H]2CCCN2C(=O)[C@H](CCc2ccc(C(F)(F)F)c(Cl)c2)NC(=O)CN(C)C(=O)[C@H](Cc2ccccc2C)N(C)C(=O)CN(C)C(=O)CN(C)C1=O [Compound 1550] (cyclo([Ac5c][NMeV][NMedβ3hAla][NMeL]I[Sar][Sar][NMePhe(2-Me)][Sar][hPhe(3-Cl-4-CF3)]P)) | 50 to 100 nM | 19 nM
CC[C@H](C)[C@@H]1NC(=O)[C@H](CC(C)C)N(C)C(=O)C[C@@H](C)N(C)C(=O)[C@H](C(C)C)N(C)C(=O)C2(CCCC2)NC(=O)[C@@H]2CCCN2C(=O)[C@H](CCc2ccc(C(F)(F)F)c(Cl)c2)NC(=O)CN(C)C(=O)[C@H](Cc2ccc(OC)cc2)N(C)C(=O)CN(C)C(=O)CN(C)C1=O [Compound 1551] (cyclo([Ac5c][NMeV][NMedβ3hAla][NMeL]I[Sar][Sar][NMeY](Me)[Sar][hPhe(3-Cl-4-CF3)]P)) | 50 to 100 nM | 4.9 nM
CC[C@H](C)[C@@H]1NC(=O)[C@H](CC(C)C)N(C)C(=O)C[C@@H](C(=O)N2CCCCC2)N(C)C(=O)[C@H](C(C)C)N(C)C(=O)C2(CCCC2)NC(=O)[C@@H]2CCCN2C(=O)[C@H](CCc2ccc(C(F)(F)F)c(Cl)c2)NC(=O)CN(C)C(=O)[C@H](Cc2cccc(C(F)(F)F)c2)N(C)C(=O)CN(C)C(=O)CN(C)C1=O [Compound 1555] ([NMeL]I[Sar][Sar][NMePhe(3-CF3)][Sar][hPhe(3-Cl-4-CF3)]P[Ac5c][NMeV][NMeD]-Piperidide; lactam N-11) | 100 to 500 nM | 6.1 nM
CC[C@H](C)[C@@H]1NC(=O)[C@H](CC(C)C)N(C)C(=O)C[C@@H](C(=O)N2CCCCC2)N(C)C(=O)[C@H](C(C)C)N(C)C(=O)C2(CCCC2)NC(=O)[C@@H]2CCCN2C(=O)[C@H](CCc2ccc(C(F)(F)F)c(Cl)c2)NC(=O)CN(C)C(=O)[C@H](Cc2cccc(F)c2)N(C)C(=O)CN(C)C(=O)CN(C)C1=O [Compound 1557] ([NMeL]I[Sar][Sar][NMePhe(3-F)][Sar][hPhe(3-Cl-4-CF3)]P[Ac5c][NMeV][NMeD]-Piperidide; lactam N-11) | 100 to 500 nM | 5.7 nM
CC[C@H](C)[C@@H]1NC(=O)[C@H](CC(C)C)N(C)C(=O)C[C@@H](C)N(C)C(=O)[C@H](C(C)C)N(C)C(=O)C2(CCCC2)NC(=O)[C@@H]2CCCN2C(=O)[C@H](CCc2ccc(C(F)(F)F)c(Cl)c2)NC(=O)CN(C)C(=O)[C@H](Cc2ccc(OC(F)(F)F)cc2)N(C)C(=O)CN(C)C(=O)CN(C)C1=O [Compound 1563] (cyclo([Ac5c][NMeV][NMedβ3hAla][NMeL]I[Sar][Sar][NMeY](CF3)[Sar][hPhe(3-Cl-4-CF3)]P)) | 50 to 100 nM | 6.2 nM
CC[C@H](C)[C@@H]1NC(=O)[C@H](CC(C)C)N(C)C(=O)C[C@@H](C)NC(=O)[C@H](C(C)C)N(C)C(=O)C2(CCCC2)NC(=O)[C@@H]2CCCN2C(=O)[C@H](CCc2ccc(C(F)(F)F)c(Cl)c2)NC(=O)CN(C)C(=O)[C@H](Cc2ccc(OC(F)(F)F)cc2)N(C)C(=O)CN(C)C(=O)CN(C)C1=O [Compound 1565] (cyclo([Ac5c][NMeV][d(β3hA)][NMeL]I[Sar][Sar][NMeY](CF3)[Sar][hPhe(3-Cl-4-CF3)]P)) | 100 to 500 nM | 14 nM
CC[C@H](C)[C@@H]1NC(=O)[C@H](CC(C)C)N(C)C(=O)C[C@@H](C)N(C)C(=O)[C@H](C(C)C)N(C)C(=O)C2(CCCC2)NC(=O)[C@@H]2CCCN2C(=O)[C@H](CCc2ccc(C(F)(F)F)c(Cl)c2)NC(=O)CN(C)C(=O)[C@H](Cc2ccccc2C(F)(F)F)N(C)C(=O)CN(C)C(=O)CN(C)C1=O [Compound 1567] (cyclo([Ac5c][NMeV][NMedβ3hAla][NMeL]I[Sar][Sar][NMePhe(2-CF3)][Sar][hPhe(3-Cl-4-CF3)]P)) | 100 to 500 nM | 33 nM
CC[C@H](C)[C@@H]1NC(=O)[C@H](CC(C)C)N(C)C(=O)C[C@@H](C)N(C)C(=O)[C@H](C(C)C)N(C)C(=O)C2(CCCC2)NC(=O)[C@@H]2CCCN2C(=O)[C@H](CCc2ccc(C(F)(F)F)c(Cl)c2)NC(=O)CN(C)C(=O)[C@H](Cc2cccc(C)c2)N(C)C(=O)CN(C)C(=O)CN(C)C1=O [Compound 1570] (cyclo([Ac5c][NMeV][NMedβ3hAla][NMeL]I[Sar][Sar][NMePhe(3-Me)][Sar][hPhe(3-Cl-4-CF3)]P)) | 50 to 100 nM | 4.3 nM
CC[C@H](C)[C@@H]1NC(=O)[C@H](CC(C)C)N(C)C(=O)C[C@@H](C)N(C)C(=O)[C@H](C(C)C)N(C)C(=O)C2(CCCC2)NC(=O)[C@@H]2CCCN2C(=O)[C@H](CCc2ccc(C(F)(F)F)c(Cl)c2)NC(=O)CN(C)C(=O)[C@H](Cc2ccc(F)cc2)N(C)C(=O)CN(C)C(=O)CN(C)C1=O [Compound 1571] (cyclo([Ac5c][NMeV][NMedβ3hAla][NMeL]I[Sar][Sar][NMePhe(4-F)][Sar][hPhe(3-Cl-4-CF3)]P)) | 50 to 100 nM | 4.8 nM
CC[C@H](C)[C@@H]1NC(=O)[C@H](CC(C)C)N(C)C(=O)C[C@@H](C)N(C)C(=O)[C@H](C(C)C)N(C)C(=O)C2(CCCC2)NC(=O)[C@@H]2CCCN2C(=O)[C@H](CCc2ccc(C(F)(F)F)c(Cl)c2)NC(=O)CN(C)C(=O)[C@H](Cc2cccc(C(F)(F)F)c2)N(C)C(=O)CN(C)C(=O)CN(C)C1=O [Compound 1572] (cyclo([Ac5c][NMeV][NMedβ3hAla][NMeL]I[Sar][Sar][NMePhe(3-CF3)][Sar][hPhe(3-Cl-4-CF3)]P)) | 50 to 100 nM | 9.8 nM
CC[C@H](C)[C@@H]1NC(=O)[C@H](CC(C)C)N(C)C(=O)C[C@@H](C(=O)N2CCCCC2)N(C)C(=O)[C@H](C(C)C)N(C)C(=O)C2(CCCC2)NC(=O)[C@@H]2CCCN2C(=O)[C@H](CCc2ccc(C(F)(F)F)c(Cl)c2)NC(=O)CN(C)C(=O)[C@H](Cc2ccc(Br)cc2)N(C)C(=O)CN(C)C(=O)CN(C)C1=O [Compound 1576] ([NMeL]I[Sar][Sar][NMePhe(4-Br)][Sar][hPhe(3-Cl-4-CF3)]P[Ac5c][NMeV][NMeD]-Piperidide; lactam N-11) | 100 to 500 nM | 5.1 nM
CC[C@H](C)[C@@H]1NC(=O)[C@H](CC(C)C)N(C)C(=O)C[C@@H](C(=O)N2CCCCC2)N(C)C(=O)[C@H](C(C)C)N(C)C(=O)C2(CCCC2)NC(=O)[C@@H]2CCCN2C(=O)[C@H](CCc2ccc(C(F)(F)F)c(Cl)c2)NC(=O)CN(C)C(=O)[C@H](Cc2ccccc2C(F)(F)F)N(C)C(=O)CN(C)C(=O)CN(C)C1=O [Compound 1579] ([NMeL]I[Sar][Sar][NMePhe(2-CF3)][Sar][hPhe(3-Cl-4-CF3)]P[Ac5c][NMeV][NMeD]-Piperidide; lactam N-11) | 100 to 500 nM | 8.2 nM
CC[C@H](C)[C@@H]1NC(=O)[C@H](CC(C)C)N(C)C(=O)C[C@@H](C(=O)N2CCCCC2)N(C)C(=O)[C@H](C(C)C)N(C)C(=O)C2(CCCC2)NC(=O)[C@@H]2CCCN2C(=O)[C@H](CCc2ccc(C(F)(F)F)c(Cl)c2)NC(=O)CN(C)C(=O)[C@H](Cc2ccccc2F)N(C)C(=O)CN(C)C(=O)CN(C)C1=O [Compound 1583] ([NMeL]I[Sar][Sar][NMePhe(2-F)][Sar][hPhe(3-Cl-4-CF3)]P[Ac5c][NMeV][NMeD]-Piperidide; lactam N-11) | 100 to 500 nM | 12 nM
CC[C@H](C)[C@@H]1NC(=O)[C@H](CC(C)C)N(C)C(=O)C[C@@H](C(=O)N2CCCCC2)N(C)C(=O)[C@H](C(C)C)N(C)C(=O)C2(CCCC2)NC(=O)[C@@H]2CCCN2C(=O)[C@H](CCc2ccc(C(F)(F)F)c(Cl)c2)NC(=O)CN(C)C(=O)[C@H](Cc2ccccc2C)N(C)C(=O)CN(C)C(=O)CN(C)C1=O [Compound 1584] ([NMeL]I[Sar][Sar][NMePhe(2-Me)][Sar][hPhe(3-Cl-4-CF3)]P[Ac5c][NMeV][NMeD]-Piperidide; lactam N-11) | 100 to 500 nM | 9.5 nM

From US12371454B2, “Cyclic peptide compound having Kras inhibitory action” (priority 2019, dated 2025)
